This note sets out measurements from BindingDB's records for doi:10.1021/acschembio.7b00543 (University of Delaware, 2017).

Structures are written as SMILES.

The term IC50 denotes the concentration at which inhibition is half-maximal. Lower therefore signals greater potency in that assay.

Experiment in all cases: Fluorometric Ub-AMC Hydrolysis Assay
Holding throughout (settings): pH 7.5; 25 °C

In assay [1] the target is T1, Ubiquitin carboxyl-terminal hydrolase 2 (Homo sapiens, UniProt O75604).
T1 sequence (O75604 whole entry): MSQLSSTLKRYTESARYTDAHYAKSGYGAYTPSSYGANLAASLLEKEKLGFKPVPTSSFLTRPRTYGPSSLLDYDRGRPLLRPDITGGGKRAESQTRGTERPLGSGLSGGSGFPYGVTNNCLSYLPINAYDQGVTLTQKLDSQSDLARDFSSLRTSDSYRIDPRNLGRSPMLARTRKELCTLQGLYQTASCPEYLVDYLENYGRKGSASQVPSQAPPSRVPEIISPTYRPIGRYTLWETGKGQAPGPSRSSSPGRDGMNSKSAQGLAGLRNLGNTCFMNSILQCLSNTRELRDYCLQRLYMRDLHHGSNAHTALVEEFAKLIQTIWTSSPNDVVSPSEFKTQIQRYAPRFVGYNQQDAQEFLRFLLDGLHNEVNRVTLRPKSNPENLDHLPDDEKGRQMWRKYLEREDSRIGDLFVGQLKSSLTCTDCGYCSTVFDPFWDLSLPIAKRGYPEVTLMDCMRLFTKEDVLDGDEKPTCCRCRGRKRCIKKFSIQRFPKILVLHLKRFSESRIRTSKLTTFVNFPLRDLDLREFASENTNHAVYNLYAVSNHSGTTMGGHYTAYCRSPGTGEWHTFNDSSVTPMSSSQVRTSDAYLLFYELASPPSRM
Here is the method: (§1) 2 nM UCHL1, UCHL5, USP15, USP2, or 2 pM UCHL3 were incubated with increasing concentrations of inhibitor in assay buffer for 5 min at room temperature. To initiate the reaction, 1 uM Ub-AMC was added and the fluorescence signal was detected for 60 s with a 380 nm excitation and 460 nm emission filter set.

In assay [2] the target is T2, Ubiquitin carboxyl-terminal hydrolase isozyme L3 (Homo sapiens, UniProt P15374).
T2 sequence (P15374 whole entry): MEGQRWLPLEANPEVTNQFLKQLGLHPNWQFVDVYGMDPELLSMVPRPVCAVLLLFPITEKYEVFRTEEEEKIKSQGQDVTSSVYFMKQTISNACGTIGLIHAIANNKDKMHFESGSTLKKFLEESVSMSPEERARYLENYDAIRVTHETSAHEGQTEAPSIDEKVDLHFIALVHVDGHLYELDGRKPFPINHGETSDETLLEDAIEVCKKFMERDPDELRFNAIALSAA
Here is the method:
as §1

Assay [3] has as its target T3, Ubiquitin carboxyl-terminal hydrolase isozyme L5 (Homo sapiens, UniProt Q9Y5K5).
T3 sequence (Q9Y5K5 whole entry): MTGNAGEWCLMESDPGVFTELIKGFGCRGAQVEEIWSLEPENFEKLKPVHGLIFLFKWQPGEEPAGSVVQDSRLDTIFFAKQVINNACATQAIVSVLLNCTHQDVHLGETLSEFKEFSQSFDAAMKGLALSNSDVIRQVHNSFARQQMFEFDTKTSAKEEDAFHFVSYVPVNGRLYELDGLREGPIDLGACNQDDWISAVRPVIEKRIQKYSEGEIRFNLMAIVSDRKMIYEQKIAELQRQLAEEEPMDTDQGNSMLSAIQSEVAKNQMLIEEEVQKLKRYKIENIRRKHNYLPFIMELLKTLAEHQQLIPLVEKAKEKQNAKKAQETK
Here is the method:
as §1

Assay [4] addresses T4, Ubiquitin carboxyl-terminal hydrolase isozyme L1 (Homo sapiens, UniProt P09936).
T4 sequence (P09936 whole entry): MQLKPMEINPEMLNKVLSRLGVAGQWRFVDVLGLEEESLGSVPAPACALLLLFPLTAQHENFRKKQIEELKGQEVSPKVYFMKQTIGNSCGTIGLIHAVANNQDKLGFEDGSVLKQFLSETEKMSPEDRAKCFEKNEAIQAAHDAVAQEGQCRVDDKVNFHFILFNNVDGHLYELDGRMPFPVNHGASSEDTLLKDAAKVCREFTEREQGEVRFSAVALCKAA
Here is the method:
as §1

In assay [5] the target is T5, Ubiquitin carboxyl-terminal hydrolase 15 (Homo sapiens, UniProt Q9Y4E8).
T5 sequence (Q9Y4E8 whole entry): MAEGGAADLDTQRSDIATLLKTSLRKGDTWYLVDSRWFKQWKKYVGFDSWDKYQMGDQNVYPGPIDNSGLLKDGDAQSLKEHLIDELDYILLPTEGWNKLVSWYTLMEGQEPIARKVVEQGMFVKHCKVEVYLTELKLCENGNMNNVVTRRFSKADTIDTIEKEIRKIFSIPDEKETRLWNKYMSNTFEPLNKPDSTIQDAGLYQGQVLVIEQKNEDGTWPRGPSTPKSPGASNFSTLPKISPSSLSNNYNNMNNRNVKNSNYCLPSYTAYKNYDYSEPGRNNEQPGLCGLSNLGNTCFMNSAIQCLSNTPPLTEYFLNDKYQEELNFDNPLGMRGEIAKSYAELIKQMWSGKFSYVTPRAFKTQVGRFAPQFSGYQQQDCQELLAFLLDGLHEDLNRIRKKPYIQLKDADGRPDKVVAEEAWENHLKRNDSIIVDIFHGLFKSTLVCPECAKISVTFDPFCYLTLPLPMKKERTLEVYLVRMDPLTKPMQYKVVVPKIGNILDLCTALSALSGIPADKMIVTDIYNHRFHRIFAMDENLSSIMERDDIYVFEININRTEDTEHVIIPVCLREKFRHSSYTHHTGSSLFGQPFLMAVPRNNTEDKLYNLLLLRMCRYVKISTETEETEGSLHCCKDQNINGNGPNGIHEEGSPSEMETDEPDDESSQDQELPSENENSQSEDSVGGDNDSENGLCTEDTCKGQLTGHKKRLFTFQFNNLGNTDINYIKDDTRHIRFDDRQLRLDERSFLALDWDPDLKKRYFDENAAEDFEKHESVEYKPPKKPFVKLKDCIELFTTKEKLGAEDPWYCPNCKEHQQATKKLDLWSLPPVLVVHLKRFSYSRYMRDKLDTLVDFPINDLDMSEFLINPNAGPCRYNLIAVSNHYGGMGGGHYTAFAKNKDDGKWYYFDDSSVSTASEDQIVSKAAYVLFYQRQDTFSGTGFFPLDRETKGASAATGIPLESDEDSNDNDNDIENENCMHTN
Here is the method:
as §1

As to `Cc1cnc(-c2ccccc2C(C)C)nc1NCc1ccc(-n2ccnn2)cc1`, the IC50 in assay [1], in assay [2] and in assay [3] was more than 114 µM throughout.
Regarding `CC(=O)Oc1c2c(c(CC=C(C)C)c3c1C(=O)C1=C[C@@H]4CC5C(C)(C)OC(C/C=C(\C)C(=O)O)(C4=O)[C@@]15O3)OC(C)(CCC=C(C)C)C=C2` (stereo not given in full), the IC50 was determined as 18.2 µM in assay [1]; 5.4 µM in assay [4]; 11.1 µM in assay [5]; 15.4 µM in assay [2]; 36.5 µM in assay [3].
For the molecule `CC(=O)ON=C1C(=O)N(Cc2cc(Cl)ccc2Cl)c2ccc(Cl)cc21` [5-Chloro-1-[(2,5-dichlorophenyl)methyl]-1H-indole-2,3-dione 3-(O-acetyloxime)], the figures for the IC50 in assay [2] and in assay [3] were 14.1 µM and 16.2 µM, respectively.
With `CC1=C(O)C(=O)C=C2C1=CC=C1[C@@]2(C)CC[C@@]2(C)[C@@H]3C[C@](C)(C(=O)O)CC[C@]3(C)CC[C@]12C` [Celastrol], the IC50 in assay [1] worked out at 28.7 µM; in assay [4] it was 6.8 µM; in assay [5] it was 32.8 µM; in assay [2], 32.1 µM; in assay [3] it was 56.6 µM.
With `CO[C@H]1/C=C/O[C@@]2(C)Oc3c(C)c(O)c4c(c3C2=O)C(=O)/C(=C/NN2CCN(C)CC2)C(=C4O)NC(=O)/C(C)=C\C=C\[C@H](C)[C@H](O)[C@@H](C)[C@@H](O)[C@@H](C)[C@H](OC(C)=O)[C@@H]1C` [Rifampicin], the half-maximal inhibitory concentration (IC50) amounted to 21.2 µM in assay [1]; 19.5 µM in assay [4]; 46.1 µM in assay [5]; 24.8 µM in assay [2]; 62.8 µM in assay [3].
